From paper PMC5640902, “Monitoring multiple myeloma by idiotype-specific peptide binders of tumor-derived exosomes” (Molecular Cancer, 2017)
Positions of bridges follow the written chain, without caps; N, C: chain ends. No end group written: not given here.

How the values were obtained:
5T33MM cells [1] = assay: In vitro cell binding of FITC-conjugated peptides by flow cytometry; type: cell-based, murine; conditions: 10 min on ice, Fig. 2b
Procedure: (§1) Cultured 5T33MM, A20 and IM9 cells as well as primary B cells from MM patient and healthy donor were washed and suspended at the density of 10^6 cells/ml in FACs Flow Buffer [BD Biosciences]. All subsequent washing and incubations were carried out in the same buffer on ice. Cells were incubated with 20 μg/ml of FITC-conjugated peptides for 10 min on ice, then washed twice, and analyzed by flow cytometry [FACSCalibur, BD Biosciences]. For peptide co-localization with the BCR complex, 5T33MM cells (10^6 cells/ml) were stained with FITC-conjugated peptides [10 μg/ml) and goat anti-mouse IgG-Alexa fluor 568 [Thermo Fisher]. After extensive washing, cells were mounted under cover slip, and visualized by confocal microscopy [Leica TC-SP2].

5T33MM-derived exosomes = assay: Exosome immunocapture (anti-CD63 SMNPs) and flow cytometry, 5T33MM-derived exosomes; type: binding, murine; conditions: exosomes from cell supernatant trapped on anti-CD63 SMNPs; FITC-conjugated reagent; Fig. 4
Procedure: (§2) Exosomes were isolated from 250 μL of blood and 10 mL of cell supernatant respectively using ExoQuick solutions [System Biosciences – SBI, Palo Alto, California, US] and ExoQuick-TC™ [System Biosciences], according to the manufacturer’s protocol. Briefly, serum and cell supernatants were centrifuged at 3000×g for 15 min to remove cells and cell debris. The supernatant was transferred to a sterile vessel and the recommended volume of ExoQuick solution or ExoQuick-TC™ were added to the bio-fluids. After brief vortex, samples were stored 30 min at 4 °C and then centrifuged at 1500 x g for 30 min at room temperature. After removing the supernatant, the pellet was suspended in nuclease-free water.
(§3) Isolated exosomes from serum or cell supernatants were suspended in 1 ml of 1X PBS. Exosome aliquots (500 μl) were labeled with 50 μl of 10X Exo-Red [SBI] according to manufacturer’s instructions. The exosomes were re-isolated using the addition of 100 μl ExoQuick followed by precipitation for 30 min at +4 °C. The labeled exosome pellet was suspended in 500 μl 1X PBS and stained with CD63-coupled magnetic beads provided by SBI’s Exo-Flow IP kit [SBI] and with the FITC-conjugated peptides.

mIg-5T33MM = assay: ELISA binding of biotin-conjugated Id-peptides to 5T33MM Ig (Scatchard plot analysis); set-up: species or system murine; conditions: biotinylated-p5 peptide at different concentrations; Fig. 2a
Procedure: (§4) Single strand DNA (ssDNA) was extracted from the selected phage clones by phenol/chlorophorm purification followed by ethanol precipitation. DNA fragment codifying the peptide ligand was amplified by PCR and sequenced to get the primary structure of amino acid sequence for the peptide synthesis. Synthesized peptides were purchased from Caslo Laboratory ApS [Caslo, Kongens Lyngby, DE]. The specific binding of peptides to the 5T33MM sIgG was analyzed by ELISA, as follows. Streptavidin coated 96 well plates were washed extensively and supplemented with biotin-conjugated peptides by 1 h-incubation at 37 °C; then, after washing and blocking with blocking solution (1X PBS, 0.05% Tween-20, 5% milk), aliquots of 5T33MM sIgG (1 μg/ml in blocking buffer) were added overnight at 4 °C. Wells were extensively washed and coated with the anti-mouse IgG (Fc-specific) alkaline phosphatase-conjugated [Sigma Aldrich] for 1 h at 37 °C, incubated with the alkaline phosphatase substrate [Sigma Aldrich], and analyzed by an ELISA reader at 405 nm [Labsystems multiscan MS].
(§5) The random peptide insert was flanked by a pair of cysteines resulting in cyclized peptide exposed on M13 coat protein. After three rounds of affinity selection, single phage clones were purified and tested by enzyme-linked immunosorbent assay (ELISA) for binding to the 5T33MM Igs or control Igs, as previously described. […]

A20 secreted IgG = assay: ELISA binding of biotinylated peptide to control A20 secreted IgG; set-up: species or system murine; conditions: biotinylated-p5 peptide; control Ig; Fig. 2a
Procedure: as §4, §5

polyclonal mouse Igs = assay: ELISA binding of biotinylated peptide to control polyclonal mouse Igs; conditions: biotinylated-p5 peptide, Fig. 2a
Procedure: as §4, §5

5T33MM cells [2] = assay: Confocal microscopy of FITC-conjugated peptide co-localization with the BCR complex; type: cell-based, murine; conditions: FITC-conjugated p5 peptide, non-permeabilized cells, anti-mouse IgG co-staining; Fig. 2c
Procedure: as §1

IM9-derived exosomes = assay: Exosome immunocapture (anti-CD63 SMNPs) and flow cytometry, IM9-derived exosomes; type: binding, human; conditions: exosomes trapped on anti-CD63 SMNPs; FITC-conjugated p5 peptide; Fig. 4
Procedure: as §2, §3

A20-derived exosomes = assay: Exosome immunocapture (anti-CD63 SMNPs) and flow cytometry, A20-derived exosomes; type: binding, murine; conditions: exosomes trapped on anti-CD63 SMNPs; FITC-conjugated p5 peptide; Fig. 4
Procedure: as §2, §3

| Sequence | recognition of 5T33MM target cells by flow cytometry (5T33MM cells [1]) | detection of 5T33MM-derived exosomes by flow cytometry (5T33MM-derived exosomes) | reactivity to the cognate antibody (5T33MM-Igs) by ELISA (mIg-5T33MM) | reactivity against A20 secreted IgG by ELISA (A20 secreted IgG) | reactivity against polyclonal mouse Igs by ELISA (polyclonal mouse Igs) | localization on 5T33MM cells by confocal microscopy (5T33MM cells [2]) | detection of exosomes released from human IM9 multiple myeloma cells (IM9-derived exosomes) | detection of exosomes released from murine A20 B-lymphoma cells (A20-derived exosomes) |
| --- | --- | --- | --- | --- | --- | --- | --- | --- |
| CGGNGPGLC [pCNT, irrelevant peptide (…) included as a negative control, FITC-conjugated, reference compound] | did not | undetected | – | – | – | – | – | – |
| CIGNSNTLC (disulfide 1-9 (inferred)) [p5, used biotinylated or FITC-conjugated] | recognized 5T33MM target cells in a dose-dependent manner | equally detected | concentration-dependent specific reactivity | did not react | did not react | bound to the 5T33MM cell surface and also localized inside the cells | did not detect | did not detect |
